Test [1] deals with Staphylococcus aureus. Put plainly: Antibacterial activity against methicillin-resistant Staphylococcus aureus ATCC BAA-44 assessed as reduction of oxacillin MIC at 25% MIC by broth microdilution method relative to oxacillin-treated control. The test is classed as functional.
The subject of test [2] is Staphylococcus aureus. Kind of test: Antibacterial activity against methicillin-resistant Staphylococcus aureus ATCC BAA-44 assessed as dispersion of preformed biofilm after 24 hrs by crystal violet reporter assay. To be noted: ATCC BAA-44, 24 h. Format: functional, organism-based. In general terms: In a reporter assay the amount or activity of a reporter protein is the signal.

The test system of test [3] is Staphylococcus aureus. Kind of test: Antibacterial activity against methicillin-resistant Staphylococcus aureus ATCC BAA-44 assessed as growth inhibition by broth microdilution method. The test is classed as functional. In general terms: Dilution methods test growth across graded concentrations, often in twofold steps.
Test [4] relates to Acinetobacter baumannii. Put plainly: Antibacterial activity against multidrug-resistant Acinetobacter baumannii ATCC BAA-1605 assessed as growth inhibition by broth microdilution method. Format: functional.
In test [5] the test system is Acinetobacter baumannii. Kind of test: Antibacterial activity against multidrug-resistant Acinetobacter baumannii ATCC BAA-1605 assessed as inhibition of biofilm growth after 24 hrs by crystal violet reporter assay. Format: functional, organism-based. To be noted: for pIC50: Acinetobacter baumannii, ATCC BAA-1605, 24 h, read-out: IC50.
Test [6] deals with Staphylococcus aureus. Put plainly: Antibacterial activity against methicillin-resistant Staphylococcus aureus ATCC BAA-44 assessed as inhibition of biofilm growth after 24 hrs by crystal violet reporter assay. Format: functional, organism-based. To be noted: ATCC BAA-44, 24 h.

pEC50, pIC50: −log10 of the molar value. Some results are limits rather than exact numbers.

In the case of `CCCCCc1ccc(C(=O)NCCn2cc(CCCCCc3c[nH]c(N)n3)nn2)cc1.Cl`, the “fold change (FC)” value in the test with Staphylococcus aureus [1] was 4.

In general, pEC50 refers to the negative decadic logarithm of the EC50, by convention in mol/L. A word on the MIC: it is the smallest concentration in the dilution series that meets the test's criterion for growth inhibition. The term pIC50 denotes the negative decadic logarithm of the IC50, by convention in mol/L. For the compound `CCCCCc1ccc(C(=O)NCCn2cc(CCCCCc3cn(CCc4ccccc4)c(N)n3)nn2)cc1.Cl`, the pEC50 with Staphylococcus aureus [2] was 4.48. The MIC in the test with Staphylococcus aureus [3] was 25 µM; with Acinetobacter baumannii [4], 100 µM. Also, the “fold change (FC)” value in the test on Staphylococcus aureus [1] was 0. Moreover, the pIC50 with Acinetobacter baumannii [5] was 4.41; in the test with Staphylococcus aureus [6], 5.00.

For `CCCCCc1ccc(C(=O)NCCn2cc(CCCCCc3cn(Cc4ccccc4)c(N)n3)nn2)cc1.Cl`, the pEC50 in the test with Staphylococcus aureus [2] is 4.40. Moreover, the MIC with Staphylococcus aureus [3] came to 12.5 µM; in the test with Acinetobacter baumannii [4], 100 µM. For the same compound, in the test with Staphylococcus aureus [1], the “fold change (FC)” value is 0. Moreover, the values for the pIC50 in the test on Acinetobacter baumannii [5] and with Staphylococcus aureus [6] were 4.47 and 5.15, respectively.

In the case of `CCCCCc1ccc(C(=O)NCCn2cc(CCCCCc3cn(-c4ccccc4)c(N)n3)nn2)cc1.Cl`, the values for the MIC in the test on Staphylococcus aureus [3] and in the test on Acinetobacter baumannii [4] were 25 µM and above 200 µM, respectively. The “fold change (FC)” value with Staphylococcus aureus [1] came out at 0. Also, the pIC50 is 4.30 with Acinetobacter baumannii [5] and 4.60 in the test with Staphylococcus aureus [6].

Take `CCCCCCn1cc(CCCCCc2cn(CCNC(=O)c3ccc(CCCCC)cc3)nn2)nc1N.Cl`: in the test with Staphylococcus aureus [2], the pEC50 is 4.39. Also, the MIC was 12.5 µM in the test with Staphylococcus aureus [3] and 100 µM in the test with Acinetobacter baumannii [4]. Further, in the test on Staphylococcus aureus [1], the “fold change (FC)” value was 0. In addition, the pIC50 in the test with Acinetobacter baumannii [5] was 4.58; in the test with Staphylococcus aureus [6], 5.21.

For the compound `CCCCCc1ccc(C(=O)NCCn2cc(CCCCCc3cn(CCCCC)c(N)n3)nn2)cc1.Cl`, the pEC50 with Staphylococcus aureus [2] was 4.35. Also, the results for the MIC in the test on Staphylococcus aureus [3] and in the test with Acinetobacter baumannii [4] were 12.5 µM and 100 µM, respectively. Besides, in the test with Staphylococcus aureus [1], the “fold change (FC)” value is given as 0. In addition, the pIC50 was 4.50 in the test with Acinetobacter baumannii [5] and 5.38 with Staphylococcus aureus [6].

Take `CCCCCc1ccc(C(=O)NCCn2cc(CCCCCc3cn(CCCC)c(N)n3)nn2)cc1.Cl`: the MIC in the test on Staphylococcus aureus [3] was 25 µM; with Acinetobacter baumannii [4], 100 µM. Also, the “fold change (FC)” value with Staphylococcus aureus [1] amounted to 0. Moreover, the pIC50 is 4.27 in the test on Acinetobacter baumannii [5] and 4.97 in the test on Staphylococcus aureus [6].

Regarding `C=CCn1cc(CCCCCc2cn(CCNC(=O)c3ccc(CCCCC)cc3)nn2)nc1N.Cl`, the MIC with Staphylococcus aureus [3] stood at 50 µM; in the test on Acinetobacter baumannii [4] it was 200 µM. Besides, the “fold change (FC)” value in the test on Staphylococcus aureus [1] is 2. Moreover, the IC50 entry with Acinetobacter baumannii [5] is listed as “ND(toxic)”. Moreover, in the test on Staphylococcus aureus [6], the negative logarithm of the IC50 (pIC50) was 4.88.

Take `CCCCCc1ccc(C(=O)NCCn2cc(CCCCCc3cn(CC(C)C)c(N)n3)nn2)cc1.Cl`: the MIC turned out to be 50 µM with Staphylococcus aureus [3] and 200 µM with Acinetobacter baumannii [4]. Besides, the “fold change (FC)” value in the test on Staphylococcus aureus [1] turned out to be 4. Besides, the pIC50 was 4.01 in the test with Acinetobacter baumannii [5] and 4.62 with Staphylococcus aureus [6].

With `CCCCCc1ccc(C(=O)NCCn2cc(CCCCCc3cn(C(C)C)c(N)n3)nn2)cc1.Cl`, the minimum inhibitory concentration (MIC) in the test with Staphylococcus aureus [3] was 200 µM; in the test on Acinetobacter baumannii [4] it was above 200 µM. The “fold change (FC)” value with Staphylococcus aureus [1] came out at 0. In addition, the IC50 result in the test with Acinetobacter baumannii [5] was “ND(toxic)”. Also, in the test on Staphylococcus aureus [6], the pIC50 was below 4.00.

Regarding `CCCCCc1ccc(C(=O)NCCn2cc(CCCCCc3cn(C4CCCCC4)c(N)n3)nn2)cc1.Cl`, the MIC in the test on Staphylococcus aureus [3] was determined as 25 µM; in the test on Acinetobacter baumannii [4], 200 µM. In the test with Staphylococcus aureus [1], the “fold change (FC)” value is reported as 2. Further, in the test with Acinetobacter baumannii [5], the IC50 result is recorded as “ND(toxic)”. In addition, in the test with Staphylococcus aureus [6], the negative logarithm of the IC50 (pIC50) is 4.73.

In the case of `CCCCCc1ccc(C(=O)NCCn2cc(CCCCCc3cn(C4CCCC4)c(N)n3)nn2)cc1.Cl`, the pEC50 in the test with Staphylococcus aureus [2] is 4.46. Further, the MIC is 25 µM with Staphylococcus aureus [3] and 100 µM in the test with Acinetobacter baumannii [4]. Further, the “fold change (FC)” value in the test on Staphylococcus aureus [1] was 2. The pIC50 in the test with Acinetobacter baumannii [5] was 4.47; with Staphylococcus aureus [6], 5.05.

On to `CCCCCc1ccc(C(=O)NCCn2cc(CCCCCc3cn(C4CC4)c(N)n3)nn2)cc1.Cl`, for which the results for the MIC in the test on Staphylococcus aureus [3] and in the test with Acinetobacter baumannii [4] were 100 µM and above 200 µM, respectively. For the same compound, in the test with Staphylococcus aureus [1], the “fold change (FC)” value was 2. The IC50 entry with Acinetobacter baumannii [5] is on record as “ND(toxic)”. Besides, the pIC50 with Staphylococcus aureus [6] is below 4.00.

The record behind these values is ChEMBL document CHEMBL2331213, “A flexible approach to 1,4-di-substituted 2-aminoimidazoles that inhibit and disperse biofilms and potentiate the effects of β-lactams against multi-drug resistant bacteria” (Eur J Med Chem, 2013).
